Laboratory results published in US20240174727A1, “LONG-ACTING NATRIURETIC PEPTIDES AND USES THEREOF” (Eli Lilly and Company, priority 2022, published 2024).
Like-named read-outs stand apart in the source and are kept apart here. Numbered stars: 1 amine (or outer) side, 2 acyl side, 3 side chain; on linkers, the order of the positions; unused ones are H or OH. Bridge positions count the residues as written; N and C are the ends. Square brackets hold non-standard residues; d marks the D form. * marks the point of attachment. C20 diacid = O=C(O)CCCCCCCCCCCCCCCCCCC(=O)*; γGlu = O=C(O)[C@H](CCC(=O)[*:2])N[*:1]; 4Pal = N[C@@H](Cc1ccncc1)C(=O)O; Dap = NC[C@H](N)C(=O)O; AEEA = NCCOCCOCC(=O)O; CH2 = C([*:1])[*:2]; βAla = NCCC(=O)O

Legend:
human NPRA = biological target: T1, human NPRA (Homo sapiens, UniProt P16066); assay: Human NPRA cGMP activity assay (HTRF) in HEK293 cells overexpressing NPRA; type: cell-based; settings: assay buffer with 0.1% casein
T1 construct: Full-Length cDNA Cloning and Generation of Cell Lines Overexpressing Natriuretic Peptide Receptors (NPRs); expressed in transfected cells; host or cells: Jump-in T-Rex HEK293 cells, pJTI R4 CMV-TO MCS pA vector, tetracycline induction
T1 sequence (P16066 33-1061): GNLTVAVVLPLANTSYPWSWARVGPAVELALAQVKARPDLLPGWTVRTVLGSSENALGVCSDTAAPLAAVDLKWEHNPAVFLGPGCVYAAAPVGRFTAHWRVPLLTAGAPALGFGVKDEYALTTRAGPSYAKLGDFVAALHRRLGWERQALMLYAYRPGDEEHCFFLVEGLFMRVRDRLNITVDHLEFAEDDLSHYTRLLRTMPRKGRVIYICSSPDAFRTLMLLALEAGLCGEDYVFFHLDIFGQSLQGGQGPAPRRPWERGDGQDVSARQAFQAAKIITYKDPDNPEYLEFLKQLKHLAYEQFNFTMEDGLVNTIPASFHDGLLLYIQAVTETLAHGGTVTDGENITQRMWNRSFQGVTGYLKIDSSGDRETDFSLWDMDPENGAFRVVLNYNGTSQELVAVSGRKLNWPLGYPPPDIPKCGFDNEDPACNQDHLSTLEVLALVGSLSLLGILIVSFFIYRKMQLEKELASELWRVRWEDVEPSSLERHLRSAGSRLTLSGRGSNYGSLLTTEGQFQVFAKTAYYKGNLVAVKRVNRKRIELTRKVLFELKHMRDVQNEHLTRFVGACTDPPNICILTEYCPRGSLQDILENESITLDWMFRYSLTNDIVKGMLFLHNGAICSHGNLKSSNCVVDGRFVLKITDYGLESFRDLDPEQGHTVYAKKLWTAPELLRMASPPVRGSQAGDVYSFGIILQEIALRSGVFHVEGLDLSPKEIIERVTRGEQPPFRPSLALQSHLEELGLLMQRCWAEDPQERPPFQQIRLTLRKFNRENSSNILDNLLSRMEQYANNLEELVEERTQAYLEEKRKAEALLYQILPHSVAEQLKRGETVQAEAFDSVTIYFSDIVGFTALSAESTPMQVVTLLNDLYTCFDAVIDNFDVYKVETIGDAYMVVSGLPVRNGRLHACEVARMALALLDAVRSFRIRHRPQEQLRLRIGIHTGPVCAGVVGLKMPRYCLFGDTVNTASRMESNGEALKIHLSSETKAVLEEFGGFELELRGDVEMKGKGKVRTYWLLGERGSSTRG
In short: (§1)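 cGMP measured by HTRF and scaled between buffer (minimum) and 100 nM amidated rat ANP (maximum). Polypeptides in 10-fold steps from 10 μM to 1 pM, 0.5% DMSO, 0.5 mM IBMX, 40 min at room temperature, on induced NPRA-overexpressing HEK293 cells.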

rat NPRA = biological target: T2, rat NPRA (Rattus norvegicus, UniProt P18910); assay: Rat NPRA cGMP activity assay (HTRF) in HEK293 cells overexpressing NPRA; type: cell-based
T2 construct: Full-Length cDNA Cloning and Generation of Cell Lines Overexpressing Natriuretic Peptide Receptors (NPRs); expressed in transfected cells; host or cells: Jump-in T-Rex HEK293 cells, pJTI R4 CMV-TO MCS pA vector, tetracycline induction
T2 sequence (P18910 29-1057): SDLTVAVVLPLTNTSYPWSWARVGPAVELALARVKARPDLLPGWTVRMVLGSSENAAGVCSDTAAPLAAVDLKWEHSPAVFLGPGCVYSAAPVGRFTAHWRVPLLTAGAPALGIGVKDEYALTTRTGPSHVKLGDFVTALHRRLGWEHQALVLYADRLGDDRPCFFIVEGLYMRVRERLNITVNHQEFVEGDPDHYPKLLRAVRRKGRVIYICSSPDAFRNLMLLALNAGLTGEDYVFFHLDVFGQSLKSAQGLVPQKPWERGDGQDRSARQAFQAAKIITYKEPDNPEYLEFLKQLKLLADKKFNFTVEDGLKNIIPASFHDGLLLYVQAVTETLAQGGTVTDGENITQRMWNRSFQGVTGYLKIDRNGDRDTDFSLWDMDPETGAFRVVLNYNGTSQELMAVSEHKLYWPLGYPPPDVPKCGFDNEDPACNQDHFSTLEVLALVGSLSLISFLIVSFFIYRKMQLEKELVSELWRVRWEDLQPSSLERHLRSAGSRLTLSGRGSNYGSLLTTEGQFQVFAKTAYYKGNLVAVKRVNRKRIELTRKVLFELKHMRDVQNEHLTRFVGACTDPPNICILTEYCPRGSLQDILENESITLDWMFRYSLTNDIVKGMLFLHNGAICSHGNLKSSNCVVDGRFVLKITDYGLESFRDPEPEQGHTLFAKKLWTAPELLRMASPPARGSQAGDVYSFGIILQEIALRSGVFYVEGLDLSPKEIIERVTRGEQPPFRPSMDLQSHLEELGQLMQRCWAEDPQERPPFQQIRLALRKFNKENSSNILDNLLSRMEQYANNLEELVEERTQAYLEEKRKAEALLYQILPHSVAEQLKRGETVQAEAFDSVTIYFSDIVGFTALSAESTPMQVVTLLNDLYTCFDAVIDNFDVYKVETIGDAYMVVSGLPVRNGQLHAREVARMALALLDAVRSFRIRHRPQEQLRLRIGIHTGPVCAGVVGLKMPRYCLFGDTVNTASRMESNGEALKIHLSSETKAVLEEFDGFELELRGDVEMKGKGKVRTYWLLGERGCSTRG
In short: as §1

[1] = read-out: cGMP Assay (EC50, pM) w/Casein hNPRA
[2] = assay buffer with 0.1% casein, read-out: cGMP Assay (EC50, pM) w/Casein rNPRA
[3] = cGMP Assay (EC50, pM) w/Casein hNPRA
[4] = assay buffer with 0.1% BSA, read-out: cGMP Assay (EC50, pM) w/BSA rNPRA

Row | Molecule | EC50 (human NPRA; [1]) | EC50 (rat NPRA; [2]) | also measured
1 | {C20 diacid-γGlu}-EKEKEKGS[4Pal]RRSSCFGGRIDRIGHQSGLGCPSFRHGGKSSGAPPPS-NH2 (linker 14-30 via CH2) [Example 67] | 1220 pM | 18800 pM | –
2 | {C20 diacid-γGlu}-EKEKEKGEKPRSSCFGG[Dap]IDRIGHQSGLGCPSFRHGSPSSGAPPPS-NH2 (linker 14-30 via CH2) [Example 139] | 19700 pM | 200000 pM | –
3 | CC[C@H](C)[C@@H]1NC(=O)[C@H](CCCNC(=N)N)NC(=O)[C@H](CC(=O)O)NC(=O)[C@H]([C@@H](C)CC)NC(=O)[C@H](CCCNC(=N)N)NC(=O)CNC(=O)CNC(=O)[C@H](Cc2ccccc2)NC(=O)[C@@H](NC(=O)[C@H](CO)NC(=O)[C@H](CO)NC(=O)[C@H](CCCNC(=N)N)NC(=O)[C@H](CCCNC(=N)N)NC(=O)[C@H](Cc2ccncc2)NC(=O)[C@H](CO)NC(=O)COCCOCCNC(=O)COCCOCCNC(=O)COCCOCCNC(=O)COCCOCCNC(=O)COCCOCCNC(=O)COCCOCCNC(=O)CNC(=O)[C@H](CCCCN)NC(=O)[C@H](CCC(=O)O)NC(=O)[C@H](CCCCN)NC(=O)[C@H](CCC(=O)O)NC(=O)[C@H](CCCCN)NC(=O)[C@H](CCC(=O)O)NC(=O)CC[C@H](NC(=O)CCCCCCCCCCCCCCCCCCC(=O)O)C(=O)O)CSCSC[C@@H](C(=O)N2CCC[C@H]2C(=O)N[C@@H](CO)C(=O)N[C@@H](Cc2ccccc2)C(=O)N[C@@H](CCCNC(=N)N)C(=O)N[C@@H](Cc2c[nH]cn2)C(=O)NCC(=O)N[C@@H](CO)C(=O)N2CCC[C@H]2C(=O)N[C@@H](CO)C(=O)N[C@@H](CO)C(=O)NCC(=O)N[C@@H](C)C(=O)N2CCC[C@H]2C(=O)N2CCC[C@H]2C(=O)N2CCC[C@H]2C(=O)N[C@@H](CO)C(N)=O)NC(=O)CNC(=O)[C@H](CC(C)C)NC(=O)CNC(=O)[C@H](CO)NC(=O)[C@H](Cc2ccc(O)cc2)NC(=O)[C@H](Cc2c[nH]cn2)NC(=O)CNC1=O [Example 96] | – | – | EC50 (human NPRA; [3]): 720 pM; EC50 (rat NPRA; cGMP Assay (EC50, pM) w/Casein rNPRA, assay buffer with 0.1% casein): 12200 pM
4 | CC[C@H](C)[C@@H]1NC(=O)[C@H](CCCNC(=N)N)NC(=O)[C@H](CC(=O)O)NC(=O)[C@H]([C@@H](C)CC)NC(=O)[C@H](CCCNC(=N)N)NC(=O)[C@H](CCCCN)NC(=O)CNC(=O)[C@H](Cc2ccccc2)NC(=O)[C@@H](NC(=O)[C@H](CO)NC(=O)[C@H](CO)NC(=O)[C@H](CCCNC(=N)N)NC(=O)[C@H](CCCNC(=N)N)NC(=O)[C@H](Cc2ccncc2)NC(=O)[C@H](CO)NC(=O)COCCOCCNC(=O)COCCOCCNC(=O)COCCOCCNC(=O)COCCOCCNC(=O)COCCOCCNC(=O)COCCOCCNC(=O)COCCOCCNC(=O)COCCOCCNC(=O)CNC(=O)[C@H](CCCCN)NC(=O)[C@H](CCC(=O)O)NC(=O)[C@H](CCCCN)NC(=O)[C@H](CCC(=O)O)NC(=O)[C@H](CCCCN)NC(=O)[C@H](CCC(=O)O)NC(=O)CC[C@H](NC(=O)CCCCCCCCCCCCCCCCCCC(=O)O)C(=O)O)CSCSC[C@@H](C(=O)N2CCC[C@H]2C(=O)N[C@@H](CO)C(=O)N[C@@H](Cc2ccccc2)C(=O)N[C@@H](CCCNC(=N)N)C(=O)N[C@@H](Cc2c[nH]cn2)C(=O)NCC(=O)NCC(=O)N[C@@H](CCCCN)C(=O)N[C@@H](CO)C(=O)N[C@@H](CO)C(=O)NCC(=O)N[C@@H](C)C(=O)N2CCC[C@H]2C(=O)N2CCC[C@H]2C(=O)N2CCC[C@H]2C(=O)N[C@@H](CO)C(N)=O)NC(=O)CNC(=O)[C@H](CC(C)C)NC(=O)CNC(=O)[C@H](CO)NC(=O)[C@H](CCC(N)=O)NC(=O)[C@H](Cc2c[nH]cn2)NC(=O)CNC1=O [Example 87] | 621 pM | – | EC50 (rat NPRA; [4]): 463000 pM
5 | {C20 diacid-γGlu}-EKEKEKG[AEEA][AEEA][AEEA][AEEA][AEEA][AEEA]EK[βAla]RSSCFGKRIDRIGHQSGLGCPSFRHGSPSSGAPPPS-NH2 (linker 20-36 via CH2) [Example 119] | 493 pM | 17900 pM | –
6 | CC[C@H](C)[C@@H]1NC(=O)[C@H](CCCNC(=N)N)NC(=O)[C@H](CC(=O)O)NC(=O)[C@H]([C@@H](C)CC)NC(=O)[C@H](CCCNC(=N)N)NC(=O)CNC(=O)CNC(=O)[C@H](Cc2ccccc2)NC(=O)[C@@H](NC(=O)[C@H](CO)NC(=O)[C@H](CO)NC(=O)[C@H](CCCNC(=N)N)NC(=O)[C@H](CCCNC(=N)N)NC(=O)[C@H](Cc2ccncc2)NC(=O)[C@H](CO)NC(=O)CNC(=O)[C@H](CCCCN)NC(=O)[C@H](CCC(=O)O)NC(=O)[C@H](CCCCN)NC(=O)[C@H](CCC(=O)O)NC(=O)[C@H](CCCCN)NC(=O)[C@H](CCC(=O)O)NC(=O)CC[C@H](NC(=O)CCCCCCCCCCCCCCCCCCC(=O)O)C(=O)O)CSSC[C@@H](C(=O)N[C@@H](CC(N)=O)C(=O)N[C@@H](CO)C(=O)N[C@@H](Cc2ccccc2)C(=O)N[C@@H](CCCNC(=N)N)C(=O)N[C@@H](Cc2ccc(O)cc2)C(N)=O)NC(=O)CNC(=O)[C@H](CC(C)C)NC(=O)CNC(=O)[C@H](CO)NC(=O)[C@H](CCC(N)=O)NC(=O)[C@H](C)NC(=O)CNC1=O [Example 11] | 1020 pM | – | EC50 (rat NPRA; [4]): 24700 pM
7 | CC[C@H](C)[C@@H]1NC(=O)[C@H](CCCNC(=N)N)NC(=O)[C@H](CC(=O)O)NC(=O)[C@H]([C@@H](C)CC)NC(=O)[C@H](CCCNC(=N)N)NC(=O)[C@H](CCCCN)NC(=O)CNC(=O)[C@H](Cc2ccccc2)NC(=O)[C@@H](NC(=O)[C@H](CO)NC(=O)[C@H](CO)NC(=O)[C@H](CCCNC(=N)N)NC(=O)[C@H](CCCNC(=N)N)NC(=O)[C@H](Cc2ccncc2)NC(=O)[C@H](CO)NC(=O)COCCOCCNC(=O)COCCOCCNC(=O)COCCOCCNC(=O)COCCOCCNC(=O)COCCOCCNC(=O)COCCOCCNC(=O)CNC(=O)[C@H](CCCCN)NC(=O)[C@H](CCC(=O)O)NC(=O)[C@H](CCCCN)NC(=O)[C@H](CCC(=O)O)NC(=O)[C@H](CCCCN)NC(=O)[C@H](CCC(=O)O)NC(=O)CC[C@H](NC(=O)CCCCCCCCCCCCCCCCCCC(=O)O)C(=O)O)CSCSC[C@@H](C(=O)N2CCC[C@H]2C(=O)N[C@@H](CO)C(=O)N[C@@H](Cc2ccccc2)C(=O)N[C@@H](CCCNC(=N)N)C(=O)N[C@@H](Cc2c[nH]cn2)C(=O)NCC(=O)N[C@@H](CO)C(=O)N2CCC[C@H]2C(=O)N[C@@H](CO)C(=O)N[C@@H](CO)C(=O)NCC(=O)N[C@@H](C)C(=O)N2CCC[C@H]2C(=O)N2CCC[C@H]2C(=O)N2CCC[C@H]2C(=O)N[C@@H](CO)C(N)=O)NC(=O)CNC(=O)[C@H](CC(C)C)NC(=O)CNC(=O)[C@H](CO)NC(=O)[C@H](Cc2ccc(O)cc2)NC(=O)[C@H](Cc2c[nH]cn2)NC(=O)CNC1=O [Example 113] | – | – | EC50 (human NPRA; [3]): 621 pM; EC50 (rat NPRA; cGMP Assay (EC50, pM) w/BSA rNPRA, assay buffer with 0.1% BSA): 149000 pM
